From patent publication US20210380695A1, “STING AGONIST COMBINATION TREATMENTS WITH IMMUNE CHECKPOINT INHIBITORS” (ImmuneSensor Therapeutics, Inc., priority 2020, published 2021)
Like-named read-outs stand apart in the source and are kept apart here.

Tests used:
[1] = Exposure (Cmax, AUC) of Compound A in cynomolgus monkeys; type: in vivo
Description: (§1) Male and female cynomolgus monkeys were assigned to groups and doses of Compound A were administered. Animals were dosed via subcutaneous injection at a volume of 2 mL/kg. The vehicle control article/diluent was phosphate-buffered saline (PBS).
(§2) In Phase II, 3 weekly administrations of 0.3 mg/kg of Compound A were tolerated. The 3 mg/kg dose in naïve animals was not tolerated and led to clinical observations of morbidity or death within 1 day of dosing. The findings were consistent with Compound A-mediated inflammatory response that was considered the probable cause of death.

STING pathway = test: Plasma cytokine and chemokine levels after subcutaneous Compound A in cynomolgus monkeys; type: in vivo; details: for plasma levels of IL-6: 3 hours and 6 hours postdose; for plasma IFNα levels: male or female
Description: as §1
(§3) IFNα, TNFα, and IL-6 levels were measured at 3, 6, and 12 hours post-dosing. Dose related but variable changes were observed. […] IL-6 increases at 3 mg/kg and 10 mg/kg persisted at 12 hours postdose. TNFα levels increased at 3 hours in the 1 mg/kg group. […] The cytokine responses are consistent with the predicted STING pathway activation. Morbidity was observed within 1 day of administration of the 10 mg/kg/dose; as such, 3 mg/kg was selected as the high dose for the following repeat-dose phase (Phase II).
as §2
(§4) A priming dose of 0.1 mg/kg/day was administered 4 days prior to the first dose of 1.0 mg/kg/day Compound A to potentially allow a tolerance to develop to avoid the acute mortality noted during Phase II following administration of 3.0 mg/kg/day of Compound A to naïve animals. […] Increased plasma levels of IL-6 were noted 3 hours and 6 hours postdose.

[2] = Subcutaneous dose escalation and repeat-dose tolerability study of Compound A in cynomolgus monkeys (priming and maintenance doses); type: in vivo
Description: as §1, §3, §2, §4
Edema is consistent with an inflammatory related pathology and the exaggerated pharmacology of the mode of action of Compound A. Administration of 3 weekly doses of 1.0 mg/kg/day (preceded by a priming dose of 0.1 mg/kg) or 0.6 mg/kg (without a priming dose) was tolerated. Animals tolerated an escalation to 3.0 mg/kg in Phase I, due to previous administrations at lower levels that allowed a tolerance to develop.

B16F10 melanoma cells [3] = test: B16F10 melanoma tumor model in C57BL6 mice: Compound A with anti-CTLA4 and/or anti-PD-L1 antibody; type: in vivo
Description: FIG. 2, panels A and B show the effect of a triple combination of Compound A (I.T.), PD-L1 antibody (I.P.), and anti-CTLA4 antibody (I.P.). Groups of C57BL6 mice (n=5) bearing B16F10 tumors were treated as indicated on day 6, 10, and 14 after tumor implantation. […] Data are shown as mean±SEM.
In the same set of experiments, the combination of 0.3 μg of Compound A (I.T.) and 200 μg of anti-PD-L1 antibody (I.P.) was also tested with and without the combination of 200 μg of anti-CTLA4 antibody (I.P.).

B16F10 melanoma cells [4] = details: intratumorally
Description: Groups of C57BL6/J mice (n=5) were implanted subcutaneously with B16F10 melanoma cells into the right flank on day 0. On day 6, 9, 12, and 15, mice were treated intratumorally with anti-CTLA4 antibody or DMXAA, or the combination of both anti-CTLA4 antibody and DMXAA. […] Data are shown as mean±SEM.
Female C57BL6 mice at the age of 7-8 weeks were implanted on day 0 with 10^6 of B16F10 melanoma cells (ATCC CRL-6475) subcutaneously on their right flanks. On day 6, tumors were measured and mice were regrouped so that each group (n=5) had similar average tumor volumes (˜120 mm^3). On day 6, 9, 12, 15, mice were treated intratumorally with 50 μg of anti-CTLA4 antibody (BioXcell, BE0614), or 50 μg of DMXAA (Sigma-Aldrich, D5817), or the combination of both the anti-CTLA4 antibody and DMXAA. Mock treated group were injected with PBS intratumorally. Tumor volumes were measured every 2-3 days and mouse survival was monitored daily.

[5] = Phase I dose escalation, subcutaneous injection
[6] = Phase II, 3 mg/kg dose in naïve animals
[7] = alone, I.T., day 6, 10, 14: 0.3 μg Compound A or 50 μg anti-CTLA4 antibody
[8] = combination 0.3 μg Compound A (I.T.) with 10 μg anti-CTLA4 antibody (I.T.)
[9] = combination 0.3 μg Compound A (I.T.) with 50 μg anti-CTLA4 antibody (I.T.)
[10] = alone, day 6, 9, 12, 15: 50 μg anti-CTLA4 antibody or 50 μg DMXAA
[11] = combination 50 μg anti-CTLA4 antibody and 50 μg DMXAA

Nc1nc2c(ncn2[C@@H]2O[C@@H]3COP(=O)(O)OC4C(O)[C@H](n5cnc6c(N)ncnc65)O[C@@H]4COP(=O)(O)OC2C3OCC(F)(F)F)c(=O)[nH]1 (stereo partly drawn) [Compound A]
increase of exposure (mean Cmax, AUC0-2, AUC0-8, AUC0-24) with dose ([1]; 0.3 to 3 mg/kg/day, Day 1 of Phase II): generally dose-proportional | sex differences in mean Cmax, AUC0-2, AUC0-8, and AUC0-24 values ([1]; male vs female): less than 2 fold | accumulation after multiple doses ([1]; multiple doses of 0.3 mg/kg/day): No accumulation | IFNα levels (STING pathway; Phase I, 1 mg/kg and 3 mg/kg groups, 3 hours and 6 hours post dosing): Moderate levels | TNFα levels (STING pathway; Phase I, 1 mg/kg group, 3 hours): increased | TNFα levels (STING pathway; Phase I, 3 mg/kg and 10 mg/kg groups): Lower levels | IFNα levels (STING pathway; Phase I, 3 mg/kg and 10 mg/kg, 12 hours after dosing): decreased 12 hours after dosing, but did not return to pre-dose levels | IL-6 increases (STING pathway; Phase I, 3 mg/kg and 10 mg/kg, 12 hours postdose): persisted | IFNα levels (STING pathway; Phase I, 10 mg/kg group): Higher levels | plasma IL-6 levels (STING pathway; Phase I, all groups, 3 and 6 hours post dosing): Increases | IL-12, G-CSF, and IFNγ levels (STING pathway; Phase II): sporadic increases | changes in pro-inflammatory cytokines and chemokines MCP-1 and IP-10 (STING pathway; Phase II): suggestive of an inflammatory response with resolution by 24 hours postdose | plasma IL-1ra, IL-6, and IFNα cytokine levels (STING pathway; Phase II, 3 mg/kg dose level, 3 and 6 hours): dose-dependent increases | plasma levels of IL-6 (STING pathway; Phase III, 0.1 mg/kg/day): Increased | IP-10 (STING pathway; Phase III, 0.1 mg/kg/day, 3 hours post dosing, male and female): Slight elevation | levels of TNFα (STING pathway; Phase III, 0.1 mg/kg/day, 6 hours postdose in male, 3 and 6 hours postdose in female): Elevated levels | TNFα levels (STING pathway; Phase III, 0.1 mg/kg/day, 24 hours post dosing): returned to non-detectable level | IL-6 levels (STING pathway; Phase III, 0.1 mg/kg/day, 24 hours postdose): returned to a non-detectable level | plasma IFNα levels (STING pathway; Phase III, 0.1 mg/kg/day): did not cause significant increase | plasma levels of IL-6 (STING pathway; Phase III, 0.6 mg/kg/day): Increased | levels of TNFα (STING pathway; Phase III, 0.6 mg/kg/day, 6 hours postdose in male, 1.5, 3, and 6 hours postdose in female): Elevated levels | plasma IFNα levels (STING pathway; Phase III, 0.6 mg/kg/day): did not cause significant increase | IP-10 (STING pathway; Phase III, 0.6 mg/kg/day, throughout the time course): No significant elevation | IP-10 level (STING pathway; Phase III, 1 mg/kg/day, 1.5, 3, and 6 hours postdose): no increased IP-10 level | TNFα levels (STING pathway; Phase III, 1 mg/kg/day, 1.5, 3, and 6 hours postdose, male and female): Elevated | IFNα levels (STING pathway; Phase III, 1 mg/kg/day, 1.5 and 3 hours postdose): did not cause significant change | IL-6 levels (STING pathway; Phase III, 1 mg/kg/day, 3 and 6 hours postdose, male and female): Marked increase | IFNα levels (STING pathway; Phase III, 1 mg/kg/day, 6 hours postdose, male and female): elevated levels | tolerability ([2]; 3 weekly doses of 0.6 mg/kg without a priming dose): tolerated | tolerability ([2]; 3 weekly doses of 1.0 mg/kg/day preceded by a priming dose of 0.1 mg/kg): tolerated | dose level tolerated on escalation [2, 5]: up to 3.0 mg/kg/dose | findings on escalation up to 3.0 mg/kg/dose [2, 5]: limited to increased body temperature and elevated IFNα, IL-6, and TNFα cytokine levels | time to morbidity after administration ([2]; Phase I, 10 mg/kg/dose): ≤ 1 days | time to morbidity or death after dosing [2, 6]: ≤ 1 days | tolerability [2, 6]: not tolerated | tolerability ([2]; Phase II, 3 weekly administrations of 0.3 mg/kg): tolerated | survival ([2]; Phase III, three weekly doses of 0.6 or 1.0 mg/kg/day (1.0 preceded by priming dose of 0.1 mg/kg/day)): survived until scheduled sacrifice | compound-related findings ([2]; animals administered 0.6 or 1.0 mg/kg/day): limited to a transient body temperature increase and mild to moderate clinical and anatomic pathology findings | dose not tolerated (acute morbidity and/or death, pulmonary edema) ([2]; naïve animals): ≥ 3.0 mg/kg | mouse survival (B16F10 melanoma cells [3]; [7]): extended mouse survival | tumor growth (B16F10 melanoma cells [3]; [7]): reduced tumor growth | mouse survival compared to both agents alone (B16F10 melanoma cells [3]; [8]): improved mouse survival | tumor growth compared to both agents alone (B16F10 melanoma cells [3]; [8]): further suppressed tumor growth | suppression of tumor growth compared to 0.3 μg Compound A (I.T.) with 200 μg anti-CTLA4 antibody (I.P.) (B16F10 melanoma cells [3]; [9]): more effective | tumor remission (B16F10 melanoma cells [3]; [9]): more dramatic tumor remission | reduction in tumor growth compared to 0.3 μg Compound A (I.T.) with 50 μg anti-CTLA4 antibody (I.T.) (B16F10 melanoma cells [3]; combination 0.3 μg Compound A (I.T.) with 200 μg anti-CTLA4 antibody (I.P.)): inferior | reduction in tumor growth compared to 0.3 μg Compound A (I.T.) with 50 μg anti-CTLA4 antibody (I.T.) (B16F10 melanoma cells [3]; combination 0.3 μg Compound A (I.T.) with 200 μg anti-PD-L1 antibody (I.P.)): inferior | anti-tumor effect compared to 200 μg anti-CTLA4 antibody administered systemically (B16F10 melanoma cells [3]; combination intratumoral Compound A with 10 μg anti-CTLA4 antibody (I.T.)): similar | tumor size and overall survival compared to 200 μg anti-CTLA4 antibody administered systemically (B16F10 melanoma cells [3]; combination intratumoral Compound A with 50 μg anti-CTLA4 antibody (I.T.)): significant benefits | effect on tumor growth compared to 0.3 μg Compound A (I.T.) with 50 μg anti-CTLA4 antibody (I.T.) (B16F10 melanoma cells [3]; triple combination 0.3 μg Compound A (I.T.), 200 μg anti-PD-L1 antibody (I.P.), 200 μg anti-CTLA4 antibody (I.P.)): comparable

Cc1ccc2c(=O)c3cccc(CC(=O)O)c3oc2c1C [DMXAA]
mice survival (B16F10 melanoma cells [4]; [10]): prolonged survival | tumor growth (B16F10 melanoma cells [4]; [10]): greatly suppressed tumor growth | controlling tumor growth compared to monotherapy (B16F10 melanoma cells [4]; [11]): significant improved effect | extending survival compared to monotherapy (B16F10 melanoma cells [4]; [11]): significant improved effect
